Laboratory results taken from publication PMC7366784 (Medical Science Monitor : International Medical Journal of …, 2020).

Key:
[1] = system: C. trachomatis; conditions: added to the replication phase of developmental cycle; cited from earlier work
[2] = system: recombinant cHtrA; assay type: in vitro ADME, C. trachomatis serovar D; conditions: AMP 100 μg/mL, cHtrA 100 μg/mL, 37°C, 30 min; Coomassie blue staining
[3] = system: MT-H143A (recombinant cHtrA mutant); assay type: in vitro ADME, C. trachomatis serovar D; conditions: AMP 100 μg/mL, mutant 100 μg/mL, 37°C, 30 min
[4] = system: MT-S247A (recombinant cHtrA mutant); assay type: in vitro ADME, C. trachomatis serovar D; conditions: AMP 100 μg/mL, mutant 100 μg/mL, 37°C, 30 min

Row | Structure (SMILES) | Effect on C. trachomatis [1] | Degradation of AMP by 100 μg/mL recombinant cHtrA [2] | Degradation of AMP by MT-H143A [3] | Degradation of AMP by MT-S247A [4]
1 | CC(C)C(NC(=O)[C@@H]1CCCN1C(=O)[C@@H](NC(=O)OC(C)(C)C)C(C)C)P(=O)(Oc1ccccc1)Oc1ccccc1 (stereo partly shown) [JO146] | lethal to C. trachomatis | – | – | –
2 | CC[C@H](C)[C@H](NC(=O)[C@H](CCCCN)NC(=O)[C@H](CCC(=O)O)NC(=O)[C@H](CCCCN)NC(=O)[C@H](CO)NC(=O)[C@H](CCCCN)NC(=O)[C@H](CCCNC(=N)N)NC(=O)[C@H](Cc1ccccc1)NC(=O)[C@H](Cc1ccccc1)NC(=O)[C@H](CC(=O)O)NC(=O)CNC(=O)[C@H](CC(C)C)NC(=O)[C@@H](N)CC(C)C)C(=O)NCC(=O)N[C@@H](CCCCN)C(=O)N[C@@H](CCC(=O)O)C(=O)N[C@@H](Cc1ccccc1)C(=O)N[C@@H](CCCCN)C(=O)N[C@@H](CCCNC(=N)N)C(=O)N[C@H](C(=O)N[C@H](C(=O)N[C@@H](CCC(N)=O)C(=O)N[C@@H](CCCNC(=N)N)C(=O)N[C@H](C(=O)N[C@@H](CCCCN)C(=O)N[C@@H](CC(=O)O)C(=O)N[C@@H](Cc1ccccc1)C(=O)N[C@@H](CC(C)C)C(=O)N[C@@H](CCCNC(=N)N)C(=O)N[C@@H](CC(N)=O)C(=O)N[C@@H](CC(C)C)C(=O)N[C@H](C(=O)N1CCC[C@H]1C(=O)N[C@@H](CCCNC(=N)N)C(=O)N[C@H](C(=O)N[C@@H](CCC(=O)O)C(=O)N[C@@H](CO)C(=O)O)[C@@H](C)O)C(C)C)[C@@H](C)CC)C(C)C)[C@@H](C)CC [LL-37] | – | degraded all LL-37 | unable to degrade LL-37 | unable to degrade LL-37
